The values below come from patent publication US20110054039A1, “USE OF ALKYL SULFATES OR SULFONATES AGAINST PROPIONIBACTERIUM ACNES” (priority 2008, published 2011).

What all share (type): cell-based
Test [1] relates to Propionibacterium acnes NCTC 737. The experiment in a line: Minimum Inhibitory Concentration (MIC) assay, broth microdilution. The settings on record: for MIC: P. acnes NCTC 737, Wilkins-Chalgren broth pH 6.0, anaerobic, 37° C., 72 hours. The method, then:
(§1) The test micro-organism represented the cutaneous propionibacteria. […] The propionibacteria are clinically significant due to their involvement in acne. This is a very common, complex and multi-factorial skin disease in which P. acnes and other Propionibacterium spp. […] They are also opportunistic pathogens in compromised hosts.
(§2) The propionibacteria were cultured and maintained on Wilkins-Chalgren Anaerobe Medium (agar and broth) at pH 6.0; all cultures were incubated anaerobically at 37° C. for 72 hours.
This is a standard international method for quantitatively assessing the antimicrobial activity of a compound in a liquid medium. […] The culture media were as described above.
The wells were inoculated with a liquid suspension of freshly grown micro-organism and incubated under the conditions described above. After incubation, the microtitre plate was examined visually (with the aid of a light box) for cloudiness in each well, which would indicate microbial growth. The MIC value was recorded as the lowest concentration of test compound required to inhibit microbial growth, ie the lowest concentration for which the liquid in the well remained clear.
The assays included both negative (culture medium with no micro-organisms) and positive (culture medium plus diluting solvent plus micro-organism) controls.
(§3) MIC, MBC and DDA assays, as described above, were carried out using as the test compound sodium n-tetradecyl sulphate (STS, ex Sigma Aldrich, UK), dissolved in distilled water. All the experiments were conducted in triplicate. For the DDA experiments, 200 μg of the test compound was loaded onto each disc.
(§4) The MIC/MBC experiments were conducted in triplicate, with the exception of those for SDS and ADS which were conducted in duplicate. The DDAs were performed either in triplicate, in which case standard deviations are quoted in parentheses, or as a single replicate. For the DDA experiments, 200 μg of the test compound was loaded onto each disc.
On the technique in general: Broth dilution looks for growth in wells or tubes with falling amounts of substance.

Test [2] has the same test system. The experiment in a line: Minimum Biocidal (Bactericidal) Concentration (MBC) assay. The note with it: P. acnes NCTC 737; for MBC: sub-culture on antibiotic-free agar after MIC assay. How it is done: as §1, §2
This assay, normally carried out after an MIC assay, determines the minimum concentration of a compound that is lethal to the micro-organism being tested.
These samples were then individually sub-cultured on antibiotic-free agar medium, under the incubation conditions described above. Following incubation they were examined visually for microbial growth.
as §3, §4

Test [3] has the same test system. The experiment in a line: Disc Diffusion Assay (DDA). The settings on record: P. acnes NCTC 737, 200 μg of test compound per disc; for zone of inhibition at 200 µg/disc: Cutibacterium acnes, NCTC737, read-out: DDA (diameter of zone of inhibition). How it is done:
as §1, §2
This is an internationally recognised standard method for qualitatively assessing the antimicrobial activity of a compound.
(§5) A sterile paper disc was impregnated with a sample of the test compound in a suitable solvent and 30 minutes allowed for the solvents to evaporate (where possible). The disc was then placed on an agar plate onto which the test micro-organism had been inoculated. The plate was then incubated under the conditions described above, following which it was examined visually for signs of microbial growth. […] The diameter of this zone of ‘inhibition’ was measured using a ProtoCOL™ automated zone sizer (Synbiosis, Cambridge, UK).
as §3, §4
(Agar diffusion results depend on both activity and mobility in agar.)

Test [4] has the same test system. The experiment in a line: Supplemented Disc Diffusion Assay (agar with salt or lipid). The settings on record: P. acnes NCTC 737, 200 μg per disc; for zone of inhibition at 200 µg/disc: Cutibacterium acnes, NCTC737, 72 h. How it is done: as §1, §2, §5
Performance under these conditions can provide a more reliable indication of activity on topical application.
as §3, §4

The mark [5] stands for this setting: Cutibacterium acnes, NCTC737, read-out: MIC.
Setting [6] is: Cutibacterium acnes, NCTC737, read-out: MBC.
Where [7] appears, read: agar supplemented with sodium chloride (100 mM), read-out: DDA + salt.
Where [8] appears, read: agar supplemented with triolein at 1% v/v, read-out: DDA + lipid.
[9] abbreviates: agar supplemented with sodium chloride (100 mM).
[10] abbreviates: agar supplemented with triolein at 1% v/v.

Where a name gives a salt, the structure may show the parent alone. Read-outs that look alike come from different tables or passages of the source.

A word on the MIC: it is the lowest concentration that inhibits growth of the organism. The term MBC denotes the smallest concentration meeting the test's criterion for killing. Take `CCCCCCCCCCCCOS(=O)(=O)O.N` [Ammonium dodecyl sulphate (ADS), ammonium dodecyl sulphate]: in test [1] (setting [5]), the MIC was found to be 31.2 µg/mL. Moreover, the minimal bactericidal concentration (MBC) in test [2] (setting [6]) came out at 125 µg/mL. Further, the MIC/MBC ratio in test [2] was found to be 0.25. In addition, the zone of inhibition at 200 µg/disc in test [3] stood at 22.2 mm; in test [4] (setting [7]) it was 24.1 mm; in test [4] (setting [8]) it was 20.3 mm.
As for `CCCCCCCCCCCCOS(=O)(=O)[O-].[Na+]` [Sodium dodecyl sulphate (SDS), sodium dodecyl sulphate], the MIC in test [1] (setting [5]) was determined as 31.2 µg/mL. For the same compound, in test [2] (setting [6]), the MBC came out at 62.5 µg/mL. In addition, the MIC/MBC ratio in test [2] is 0.5. Also, the figures for the zone of inhibition at 200 µg/disc in test [3], in test [4] (setting [7]) and in test [4] (setting [8]) were 30.7 mm, 28.2 mm and 28.2 mm, respectively.
With `CCCCCCCCS(=O)(=O)O.[Na]` [Sodium 1-octane sulphonic acid, sodium 1-octane sulphonic acid], the minimum inhibitory concentration (MIC) in test [1] (setting [5]) was above 250 µg/mL. In test [2] (setting [6]), the MBC is above 250 µg/mL. Besides, the zone of inhibition at 200 µg/disc in test [3], in test [4] (setting [7]) and in test [4] (setting [8]) was 0 mm throughout.
As to `CCCCCCCCCCCCCCOS(=O)(=O)O` [Sodium n-tetradecyl sulphate, sodium n-tetradecyl sulphate], the minimal inhibitory concentration (MIC) in test [1] (setting [5]) turned out to be 0.98 µg/mL. The “antibacterial activity against P. acnes NCTC 737 (in words)” value in test [1] (summary of MIC, MBC and DDA results) was “highly active”. The MBC in test [2] (setting [6]) worked out at 0.98 µg/mL. Besides, in test [2], the MIC/MBC ratio is on record as 1. Moreover, the zone of inhibition at 200 µg/disc in test [3] is 29.9 mm; in test [4] (setting [7]), 31.6 mm; in test [4] (setting [8]), 33.7 mm. Also, in test [3] (sulphate), the “DDA (diameter of zone of inhibition)” value amounted to 29.87 mm. Besides, the “DDA + salt” value in test [4] (agar supplemented with sodium chloride (100 mM), sulphate) turned out to be 31.62 mm. In test [4] (agar supplemented with triolein at 1% v/v, sulphate), the “DDA + lipid” value amounted to 33.67 mm.
On to `CCCCCCCCCCCCCCCCOS(=O)(=O)[O-].[Na+]` [Sodium hexadecyl sulphate, sodium hexadecyl sulphate], for which the MIC in test [1] (setting [5]) was found to be 0.98 µg/mL. In addition, the MBC in test [2] (setting [6]) was found to be 1.95 µg/mL. The MIC/MBC ratio in test [2] was determined as 0.5. For the same compound, the zone of inhibition at 200 µg/disc was determined as 36.3 mm in test [3], 32.4 mm in test [4] (setting [7]) and 39.8 mm in test [4] (setting [8]).
As for `CCCCCCCCCCCCOS(=O)(=O)O.NC(CO)(CO)CO` [Trizma ® dodecyl sulphate, Trizma® (2-amino-2-(hydroxymethyl)-1,3-propanediol, alsoknownas ‘Tris’) dodecyl sulphate], the MIC in test [1] worked out at 31.25 µg/mL. For the same compound, in test [2], the MIC/MBC ratio was 0.5 and the MBC came out at 62.5 µg/mL. The “DDA (diameter of zone of inhibition)” value in test [3] came out at 0.00 mm. In addition, the “DDA + salt” value in test [4] (setting [9]) was 0.00 mm. The “DDA + lipid” value in test [4] (setting [10]) is listed as 0.00 mm.
For `CCCCCCCCCCCCOS(=O)(=O)[O-].[Li+]` [Lithium dodecyl sulphate, lithium dodecyl sulphate], the MIC in test [1] (setting [5]) came to 15.6 µg/mL. Further, the minimum bactericidal concentration (MBC) in test [2] (setting [6]) is 15.6 µg/mL. Further, the MIC/MBC ratio in test [2] worked out at 1. Besides, the zone of inhibition at 200 µg/disc in test [3] was 30 mm; in test [4] (setting [7]), 30.5 mm; in test [4] (setting [8]), 30.2 mm.
For `CCCCCCCCCCCCCCS(=O)(=O)O.[Na]` [Sodium 1-tetradecane sulphonic acid, sodium 1-tetradecane sulphonic acid], the MIC in test [1] (setting [5]) was found to be 3.9 µg/mL. In addition, the MBC in test [2] (setting [6]) worked out at 15.6 µg/mL. Also, the MIC/MBC ratio in test [2] is reported as 0.25. The figures for the zone of inhibition at 200 µg/disc in test [3], in test [4] (setting [7]) and in test [4] (setting [8]) were 11.2 mm, 12.4 mm and 9.61 mm, respectively.
Take `CCCCCCCCCCCCCCCS(=O)(=O)O.[Na]` [Sodium 1-pentadecane sulphonic acid, sodium 1-pentadecane sulphonic acid]: the MIC in test [1] (setting [5]) was 0.98 µg/mL. Besides, the minimal bactericidal concentration (MBC) in test [2] (setting [6]) is 3.9 µg/mL. For the same compound, in test [2], the MIC/MBC ratio stood at 0.25. The zone of inhibition at 200 µg/disc was found to be 11.8 mm in test [3], 12.1 mm in test [4] (setting [7]) and 0 mm in test [4] (setting [8]).
As to `CCCCCCCCCCCCS(=O)(=O)[O-].[Na+]` [Sodium 1-dodecanesulphonate, sodium 1-dodecanesulphonate], the MIC in test [1] (setting [5]) worked out at 125 µg/mL. The MBC in test [2] (setting [6]) came out at 250 µg/mL. For the same compound, the MIC/MBC ratio in test [2] is given as 0.5. Further, the figures for the zone of inhibition at 200 µg/disc in test [3], in test [4] (setting [7]) and in test [4] (setting [8]) were 18.1 mm, 23 mm and 18.4 mm, respectively.
Turning to `CCCCS(=O)(=O)[O-].[Na+]` [Sodium 1-butane sulphonate, sodium 1-butane sulphonate], the MIC in test [1] (setting [5]) is above 250 µg/mL. For the same compound, in test [2] (setting [6]), the MBC is above 250 µg/mL. For the same compound, the zone of inhibition at 200 µg/disc in test [3], in test [4] (setting [7]) and in test [4] (setting [8]) was 0 mm each time.
As for `CCCCCCCOS(=O)(=O)[O-].[Na+]` [Sodium-n-heptyl sulphate, sodium-n-heptyl sulphate], the MIC in test [1] (setting [5]) was above 250 µg/mL. In addition, the MBC in test [2] (setting [6]) was above 250 µg/mL. The zone of inhibition at 200 µg/disc in test [3], in test [4] (setting [7]) and in test [4] (setting [8]) was 0 mm in each case.
`CCCCCOS(=O)(=O)[O-].[Na+]` [Sodium n-pentyl sulphate, sodium n-pentyl sulphate]: in test [1] (setting [5]), the MIC is above 250 µg/mL. In test [2] (setting [6]), the MBC is above 250 µg/mL. For the same compound, the zone of inhibition at 200 µg/disc in test [3], in test [4] (setting [7]) and in test [4] (setting [8]) was 0 mm throughout.
On to `CCCCC(CC)CCC(CC(C)C)OS(=O)(=O)O` (stereo not drawn) [7-ethyl-2-methyl-4-hendecanol sulphate sodium salt], for which the MIC in test [1] (setting [5]) came to 31.2 µg/mL. Besides, the MBC in test [2] (setting [6]) was 62.5 µg/mL. Moreover, in test [2], the MIC/MBC ratio came to 0.5. The zone of inhibition at 200 µg/disc in test [3] came to 28.5 mm; in test [4] (setting [7]), 30.8 mm; in test [4] (setting [8]) it was 28.6 mm.
Consider `CCCCCCCCCCCCCS(=O)(=O)O.[Na]` [Sodium 1-tridecane sulphonic acid, sodium 1-tridecane sulphonic acid], for which the MIC in test [1] (setting [5]) amounted to 15.6 µg/mL. Further, in test [2] (setting [6]), the MBC worked out at 31.2 µg/mL. Moreover, the MIC/MBC ratio in test [2] is reported as 0.5. Moreover, the zone of inhibition at 200 µg/disc was found to be 28.6 mm in test [3], 29.3 mm in test [4] (setting [7]) and 27.4 mm in test [4] (setting [8]).
Consider `CCCCCCCCCCS(=O)(=O)[O-].[Na+]` [Sodium 1-decane sulphonate, sodium 1-decane sulphonate], for which, in test [1] (setting [5]), the MIC is above 250 µg/mL. Moreover, the MBC in test [2] (setting [6]) was above 250 µg/mL. Also, the zone of inhibition at 200 µg/disc in test [3], in test [4] (setting [7]) and in test [4] (setting [8]) was 0 mm each time.
For `CCCS(=O)(=O)[O-].O.[Na+]` [Sodium 1-propanesulphate monohydrate, sodium 1-propanesulphate monohydrate], the MIC in test [1] is above 250 µg/mL. The compound further came in with an MBC in test [2] above 250 µg/mL. For the same compound, the “DDA (diameter of zone of inhibition)” value in test [3] was 0.00 mm. Moreover, in test [4] (setting [9]), the “DDA + salt” value was determined as 0.00 mm. Moreover, the “DDA + lipid” value in test [4] (setting [10]) was found to be 0.00 mm.
For `CCCCCS(=O)(=O)[O-].[Na+]` [Sodium pentane sulphonate, sodium pentane sulphonate], in test [1] (setting [5]), the MIC was above 250 µg/mL. In test [2] (setting [6]), the MBC is above 250 µg/mL. For the same compound, the zone of inhibition at 200 µg/disc in test [3], in test [4] (setting [7]) and in test [4] (setting [8]) was 0 mm each time.
